# Results from paper PMC12040169 (PLOS Biology, 2025).
# Assay: in vitro
# Details: human, hela cells, % viability
row,SMILES,"viability at 28.5 h, 10 µM [%]"
1,COc1cc(Nc2cccc3c2C(=O)c2ccccc2C3=O)c(OC)cc1C=O [CBK262677],109
2,CC(Nc1cccc2ccccc12)C(=O)N/N=C/c1c(O)ccc2ccccc12 (stereo not shown) [CBK262678],97.5
3,CCOc1ccc2c(c1)-c1c(ssc1=S)C(C)(C)N2C(=O)CSc1nnc[nH]1 [CBK262680],98.6
4,Cc1ccc2c(c1)-c1c(ssc1=S)C(C)(C)N2C(=O)COc1nc2ccccc2s1 [CBK262682],88
5,CCOC(=O)/C(C#N)=C(\O)c1ccc(N2C(=O)c3ccc(C(=O)O)cc3C2=O)cc1 [CBK262683],91.8
6,CCOc1ccc(-c2c3c(c(-c4ccccc4)n2-c2ccc(N)cc2)C(=O)c2ccccc2C3=O)cc1 [CBK262685],40
7,COc1cc(C2Nc3ccccc3-c3nc(SC)nnc3O2)ccc1OCC(=O)O (stereo not shown) [CBK262687],94.3
8,CC(NCCN1CCOCC1)=C1C(=O)c2ccccc2C1=O [CBK262691],96.1
9,CC(NCc1ccc(S(N)(=O)=O)cc1)=C1C(=O)c2ccccc2C1=O [CBK262692],87
10,COc1cccc(NC(=O)C2CN(S(=O)(=O)c3ccccc3)CCN2S(=O)(=O)c2ccccc2)c1 (stereo not shown) [CBK262694],85.9
11,Nc1ccc(-n2c(-c3ccccc3)c3c(c2-c2ccc(Cl)cc2)C(=O)c2ccccc2C3=O)cc1 [CBK262695],87.3
12,Cc1ccc2c(c1)N(C(=O)COc1nc3ccccc3s1)C(C)(C)c1ssc(=S)c1-2 [CBK262696],97.7
13,O=C(O)Cn1cc(I)c(=O)[nH]c1=O [CBK262698],98.6
14,O=C(CSc1nc2ccccc2c(=O)n1Cc1ccccc1)c1ccc(Br)cc1 [CBK262700],93.4
15,Nc1ncnc(NCCc2ccccc2)n1 [CBK262701],85
16,NC(=O)C[N+]1(CC#CC(O)(c2ccccc2)c2ccccc2)CCCC1 [CBK262703I],95.3
17,CNCCOCC(O)CSc1ccccc1 (stereo not shown) [CBK262704],100
18,Cc1ccc(/N=N/N(CC(O)C(O)C(O)CO)c2ccc(C)c(C)c2)cc1C (stereo not shown) [CBK262705],90
19,O=C(c1ccccc1)c1ccc2[nH]c(-c3ccc(NC(=O)c4ccccc4Cl)cc3)nc2c1 [CBK262706],83.7
20,CCOC(=O)CC1=C(C(=O)OCC)C(c2ccccc2C(F)(F)F)C(C#N)=C(N)O1 (stereo not shown) [CBK262710],105
21,CS(=O)(=O)N(Cc1ccccc1)c1ccc(C(=O)N/N=C/c2ccccc2C(F)(F)F)cc1 [CBK262711],88

row,SMILES,"viability at 28.5 h, 10 µM [%]"
1,O=C(N/N=C/c1cccnc1)C1CCCN(S(=O)(=O)c2ccccc2)C1 (stereo not shown) [CBK262712],91.5
2,Cc1cc(C)c(OCCNC(C)(C)C)c(Cl)c1 [CBK262713C],93.2
3,O=C(O)CC(Cc1ccc(Br)cc1)C(=O)Nc1ccccc1 (stereo not shown) [CBK262714],96.2
4,COc1cccc(OC)c1OCCCN1CCCCC1 [CBK262719],97.7
5,CC(=O)Nc1ccc(/C(C)=N/NC(=O)c2ccc(CN3CCOCC3)cc2)cc1 [CBK262720],91.7
6,O=C(N/N=C/c1cc2c(cc1Br)OCO2)c1ccc(CN2CCOCC2)cc1 [CBK262721],90.1
7,N#Cc1c(NC(=O)c2ccc(C(=O)O)cc2C(=O)O)sc2c1CCCC2 [CBK262722],105
8,O=C(CSc1ccc(Cl)cc1)Nc1ccc(S(=O)(=O)N2CCOCC2)cc1 [CBK262723],95
9,Cc1c(C(=O)O)cccc1N1C(=O)c2ccc([N+](=O)[O-])cc2C1=O [CBK262724],99.9
10,Cc1[nH]nc(Nc2cccc(C(=O)O)c2)c1[N+](=O)[O-] [CBK262725],96.2
11,OC(CN1CCN(C(c2ccccc2)c2ccccc2)CC1)Cn1c2ccccc2c2ccccc21 (stereo not shown) [CBK262730],99.6
12,Cc1ccc2nc(Cl)c(/C=N/NC(=O)CN3CCOCC3)cc2c1 [CBK262731],91.2
13,C=CCn1c(SCC(=O)O)nnc1-c1ccc([N+](=O)[O-])cc1 [CBK262736],88.6
14,C=C(C)Cn1c(SCC(=O)O)nnc1-c1ccccc1 [CBK262737],91.9
15,O=[N+]([O-])c1ccc2c(c1)C(N1CCOCC1)/C(=C/COc1ccc3ccccc3c1Br)O2 (stereo not shown) [CBK262738],97.1
16,O=[N+]([O-])c1ccc(O)c(C(C#Cc2ccccc2)N2CCOCC2)c1 (stereo not shown) [CBK262741],93.2
17,CN1CCC(=NNC(=O)c2ccc(N(Cc3ccccc3)S(C)(=O)=O)cc2)CC1 [CBK262742],82.4
18,CC(=O)Nc1cccc(/C(C)=N/NC(=O)c2ccc(CN3CCOCC3)cc2)c1 [CBK262746],95.4
19,Cc1ccc(C(=O)O)cc1N1C(=O)c2ccc(S(=O)(=O)c3ccc(C(=O)O)cc3)cc2C1=O [CBK262747],96.1
20,C/C(CCc1ccccc1)=N\NC(=O)c1ccc(CN2CCOCC2)cc1 [CBK262752],99.5
21,Clc1ccc(OC/C=C2\Oc3ccc(Cl)cc3C2N2CCOCC2)c(Cl)c1 (stereo not shown) [CBK262753],94.5

row,SMILES,"viability at 28.5 h, 10 µM [%]"
1,CS(=O)(=O)N(Cc1ccccc1)c1ccc(C(=O)Nc2ccc(-c3ccccc3)cc2)cc1 [CBK262754],90.6
2,Cc1ccc(N2C(=O)/C(=C/c3ccc(O)c(O)c3)SC2=S)cc1C [CBK262756],76.8
3,CCOc1cc(/C=C2\SC(=S)N(NC(=O)c3cccnc3)C2=O)ccc1O [CBK262759],105
4,O=C(O)c1ccc(S(=O)(=O)c2ccc3c(c2)C(=O)N(c2ccccc2-c2ccccc2)C3=O)cc1 [CBK262760],101
5,O=C(CN1C(=O)c2ccccc2C1=O)Nc1cccc2ncccc12 [CBK262761],84
6,Cc1nnc(SCC(=O)N/N=C/c2ccncc2)n1-c1ccccc1 [CBK262762],85.4
7,CN1CCN(N/C=C2/C(=O)N(c3ccc([N+](=O)[O-])cc3)N=C2c2ccccc2)CC1 [CBK262763],89.6
8,COc1ccccc1N1C(=O)CC(SC(=N)N/N=C(\C)c2ccc(O)cc2)C1=O (stereo not shown) [CBK262766],100
9,Cc1nnc(SCC(=O)N/N=C/c2ccc(-c3ccc(Br)cc3)o2)n1-c1ccccc1 [CBK262769],104
10,O=C(N/N=C/c1ccccc1O)c1ccn(Cc2ccc(Cl)cc2)n1 [CBK262770],91.3
11,O=C1NCC(c2ccccc2)C1C(=O)N/N=C\c1cc(O)ccc1[N+](=O)[O-] (stereo not shown) [CBK262772],91.8
12,O=C1c2ccc(Oc3ccc4c(c3)C(=O)N(c3cccnc3)C4=O)cc2C(=O)N1c1cccnc1 [CBK262773],88.6
13,CN1CCN(c2nc(-c3ccccc3)cc(-c3ccc(Br)cc3)n2)CC1 [CBK262774],93.7
14,O=C(CSc1nnc(-c2ccncc2)n1-c1ccccc1)N/N=C/c1c[nH]c2ccccc12 [CBK262776],90.5
15,O=C(Cc1ccccc1)N/N=C/c1cccc2cccnc12 [CBK262778],85.7
16,Cc1cc2nc(-c3cc(NC(=O)c4ccc(C)c([N+](=O)[O-])c4)ccc3O)oc2cc1C [CBK262779],89.1
17,O=C(COc1ccccc1Cl)N/N=C/c1ccc(-c2ccccc2[N+](=O)[O-])o1 [CBK262782],112
18,O=C(c1cccc([N+](=O)[O-])c1)c1ccc2c(c1)C(=O)N(Cc1cccnc1)C2=O [CBK262784],80.1
19,O=C(O)/C=C/C(=O)N(Cc1ccc2c(c1)OCO2)C1CC(=O)N(c2ccccc2)C1=O (stereo not shown) [CBK262786],91.4
20,COc1cc(NC(=O)c2ccc3c(c2)C(=O)N(c2ccccc2OC)C3=O)c(C(=O)O)cc1OC [CBK262787],95.1
21,O=C(O)c1ccc(/C=N\NC(=O)C2COc3cc4ccccc4cc3O2)cc1 (stereo not shown) [CBK262792],90.4

row,SMILES,"viability at 28.5 h, 10 µM [%]"
1,O=C(CN1C(=O)c2ccccc2C1=O)NCc1ccc(C(=O)O)cc1 [CBK262795],90.2
2,COc1cc(NS(=O)(=O)c2ccc(Nc3nc(-c4sc(N)nc4C)cs3)cc2)nc(OC)n1 [CBK262796],91.2
3,Cc1ccc(S(=O)(=O)NC(C)(C)CN2CCN(C(c3ccccc3)c3ccccc3)CC2)cc1 [CBK262799],90
4,O=C(O)c1cc(NC(=O)c2cccc(F)c2)cc(NC(=O)c2cccc(F)c2)c1 [CBK262800],90.6
5,O=C(O)CCCN1C(=O)/C(=C/c2ccccc2[N+](=O)[O-])SC1=S [CBK262801],90.4
6,CC(O)CNCCNc1c(Cl)cccc1[N+](=O)[O-] (stereo not shown) [CBK262802C],98.8
7,O=[N+]([O-])c1cc(S(=O)(=O)N2CCCCCC2)ccc1NCc1ccccc1 [CBK262804],88.3
8,CC(CO)(CO)Nc1ccc(C(F)(F)F)cc1[N+](=O)[O-] [CBK262806],61.9
9,Cc1ccc(-c2ccc(/C=N\NC(=O)C3C(=O)NCC3c3ccccc3)o2)cc1Cl (stereo not shown) [CBK262808],98.7
10,O=C(Oc1ccc(/C=N/NC(=O)C2COc3ccccc3O2)cc1)c1cccnc1 (stereo not shown) [CBK262811],96.5
11,COc1ccc(/C=N/NC(=O)CSc2nnc(C)n2-c2ccccc2)cc1 [CBK262812],114
12,CC(Oc1ccccc1)C(=O)Nc1cccc(-c2nnc(-c3ccccc3)o2)c1 (stereo not shown) [CBK262822],91.2
13,O=C(O)c1ccc(S(=O)(=O)c2ccc3c(c2)C(=O)N(c2cc(C(=O)O)cc(C(=O)O)c2)C3=O)cc1 [CBK262824],92.8
14,C/C(=N\NC(=O)c1nc(-c2ccccc2)cc(-c2ccccc2)n1)c1cccnc1 [CBK262827],90.2
15,O=C(CSc1nnc(-c2ccncc2)n1-c1ccccc1)N/N=C/c1ccco1 [CBK262828],94.4
16,CCOc1cccc(N2C(=O)CC(N3CCN(c4ccccn4)CC3)C2=O)c1 (stereo not shown) [CBK262829],105
17,O=C(O)c1ccc(CN2C(=O)c3ccc(C(=O)c4ccc(C(=O)O)cc4)cc3C2=O)cc1 [CBK262831],102
18,CC1=CC(C)C(CNCCN2CCNCC2)C(C)C1 (stereo not shown) [CBK262832],90
19,COc1ccc(N2C(=O)c3ccc(C(=O)Nc4ccccc4C(=O)O)cc3C2=O)cc1O [CBK262833],97.8
